Article PMC8538004, “Identification of a Novel Neuropeptide S Receptor Antagonist Scaffold Based on the SHA-68 Core” (Pharmaceuticals, 2021)
Entries after “also recorded” stand apart in the source; their conditions may differ. Read-outs that look alike come from different tables or passages of the source.

Tests used:
[1] = Glutathione incubation assay; format: physicochemical; details: 2 mM compound, 18 mM glutathione, MeCN/water, up to 48 h, LC/MS
Method: For the glutathione incubation assay, 20 mM stock solutions of compound 14b in MeCN (400 µL) and glutathione GSH in MeCN: Milli-Q H2O (10 mL, 1: 1, v/v) were prepared in separate scintillation vials. To prepare the incubation solution, 100 µL of 14b solution and 900 µL of GSH solution were taken in a clean HPLC vial. The final concentrations of 14b and GSH were 2 mM and 18 mM, respectively. In addition, a 2 mM reference solution of 14b was prepared by adding 100 µL of 14b stock solution to an HPLC vial containing 900 µL of MeCN: H2O (1:1), and an 18 mM reference solution of GSH was prepared by adding 900 µL of GSH stock solution to an HPLC vial containing 100 µL of MeCN.
Low-resolution mass spectra were obtained using an Agilent InfinityLab MSD single quadrupole mass spectrometer system (ESI). […] Chromatograms were detected using 254 and 280 nm wavelengths with 5 µL injections and data were processed using a general walkup method*.
*LC/MS Walkup Method: an Agilent InfinityLab MSD single quadrupole mass spectrometer equipped with an API-ES and an Agilent Infinity II 1260 HPLC equipped with an Agilent Infinity 1260 variable wavelength detector and a Phenomenex Synergi […] Hydro-RP 100A C18 30 × 2 mm column. […] MS Method: using atmospheric pressure ionization–electrospray, positive and negative ions were monitored in the range of 70–700 or 200–2000 (for compounds with a MW > 700).

[2] = Pharmacokinetic study in C57Bl6 mice; format: in vivo, C57/Bl6 mice; details: 30 mg/kg i.p.; for Cmax: mouse, ip
Method: Animals were administered vehicle (1% n-methyl-2-pyrrolidone (NMP) with 0.5% Tween 80 in 0.5% carboxymethyl cellulose (CMC) in water) or compound 14b dissolved in the same vehicle (30 mg/kg, i.p.), and were euthanized at the appropriate timepoints by isoflurane overdose with decapitation. Trunk blood and brains were taken at 15, 30, 60, 120, and 240 min post-injection. Blood was collected in 5 mL tubes that had been preloaded with 0.5 M EDTA so that the final concentration would be approximately 5 mM. Blood/EDTA was centrifuged at 1000× g at 4 °C for 10 min. Plasma was collected and flash-frozen on dry ice and stored at −80 °C until analysis.
Stock solutions of 14b were prepared and diluted serially to generate standard curve and quality control spiking solutions. The concentrations in plasma and brain homogenate for 14b were 0.5, 1, 5, 10, 50, 100, 500, and 1000 ng/mL for standard curves.
Brains were weighed and homogenized at 1:5 (wt:vol) with 50:50 ethanol:water using a Geno/Grinder 2010 (SPEXSamplePrep, Metuchen, NJ, USA) twice at 1750 rpm for 30 s. Subsequently, 50 µL of plasma or brain homogenate was mixed with 150 µL of acetonitrile containing reserpine as internal standard (100 ng/mL) in a 96-well plate. The plate was shaken at 700 rpm for 3 min and then centrifuged at 4000 rpm for 10 min at 4 C. Then, 50 µL of supernatant was mixed with 50 µL of water in a new plate and analyzed by LC/MS-MS.
A SCIEX Exion AD UHPLC system (Framingham, MA) was used to inject 10 µL of the processed samples/calibration standards onto a Waters Acquity BEH C18 (2.1 mm × 100 mm, […]) column (Milford, MA). Mobile phase A consisted of 0.1% formic acid in water, and mobile phase B consisted of 0.1% formic acid in acetonitrile. […] Quantitation was achieved by multiple reaction monitoring in positive ion mode using an SCIEX 6500+ (Framingham, MA) QTRAP mass spectrometer. Compound 14b was quantitated by monitoring the transition of m/z 445.044 → 251.1, and the internal standard, reserpine, was monitored by m/z 609.300 → 194.9. […]

Clearance in plasma [2]: 288 mL/min/kg | Cmax ([2]; brain, read-out: Cmax in brain): 186 ng/mL | Cmax ([2]; plasma, read-out: Cmax in plasma): 1940 ng/mL
SMILES: CC(C)CC1(c2ccccc2)OC(=O)C2=C1CN(C(=O)NCc1ccccc1)CC2 (single isomer, unassigned; (+)) [Compound 14b, (+) N-benzyl-3-(2-methylpropyl)-1-oxo-3-phenyl-1H,3H,4H,5H,6H,7H-furo[3,4-c]pyridine-5-carboxamide]
Glutathione adduct formation [1]: No glutathione adduct was identified; also recorded: stable
